According to PMC8781390, “Inclusion Complexes of Rifampicin with Native and Derivatized Cyclodextrins: In Silico Modeling, Formulation, and Characterization” (Pharmaceuticals, 2021):
Values after ≈ are worked out from the molar mass of the structure shown. Where two headings read alike, the source gives them in different places.

Legend:
[1] = Phase solubility analysis of RIF with cyclodextrins (binding constant, complexation efficiency); assay type: physicochemical
Method: Phase solubility analysis was carried out similarly to the saturation solubility studies by using a range of concentrations of CDs in buffered solutions at different pH vales. […] Solubility of each drug was determined and plotted in a graph with the nominal concentration of cyclodextrin on the x-axis and the nominal concentration of RIF on the y-axis.
In order to determine the binding strength of CD and RIF, the binding constant (Ks) was calculated based on the phase diagram of solubility studies. […] (1) Ks=[RIF−CD]/[RIF]free·[CD]free CD+RIF↔KsCD−RIF where [RIF − CD], [RIF]free, and [CD]free are concentration of the RIF-CD complexes, free RIF, and free CD, respectively.
[RIF]free can be considered as RIF initial solubility (S0), therefore Equation (2) becomes:(2) Ks=[RIF−CD]/S0·[CD]free
The phase solubility diagram was constructed by plotting the RIF molar concentration on the y-axis and the CD molar concentration on the x-axis. […] (3) Ks=slope/S0·(1−slope)
The complexation efficiency (CE) was determined by using the slope of the phase solubility diagram according to Equation (4). (4) CE=[CD−RIF]/[CD]free=S0·Ks=slope/1−slope
Based on CE determination, the CD molar ratio was calculated using Equation (5). (5) Drug :CD molar ratio=1 : (CE+1)/CE

[2] = tested on: Staphylococcus aureus (NCTC 10788); experiment: MIC by broth microdilution; assay type: cell-based; details: Staphylococcus aureus NCTC 10788, 37 °C
Method: (§1) The minimum inhibitory concentration (MIC) of pure RIF and RIF-CD complexes was determined against both Staphylococcus aureus (NCTC® 10788) and methicillin-resistant Staphylococcus aureus (MRSA) (ATCC® 33593™) using the broth microdilution method. Briefly, inclusion complexes of RIF-CD were separately dissolved in sterile distilled water and diluted with Mueller–Hinton broth (MHB) to obtain a series of culture media containing different RIF concentrations ranging from 50 to 0.78 µg/mL. Solutions and suspensions of pure RIF were prepared by adding the pure RIF in methanol and in sterile distilled water, respectively, and then diluted with MHB to achieve the same concentration as for the RIF-CD inclusion complexes. Culture media in the microplates were inoculated with 100 µL of each bacterial suspension to achieve a final bacterial concentration of 2.0 × 10^5 CFU/mL. Pure MHB inoculated with the different bacterial strains was included as a positive control. The inoculated culture media were then incubated at 37 °C for 24 h. The MIC was determined as the lowest concentration of pure RIF and RIF-CD inclusion complexes where no visible bacterial growth was detected.

[3] = tested on: Methicillin-resistant Staphylococcus aureus (MRSA) (ATCC 33593); experiment: MIC by broth microdilution; assay type: cell-based; details: MRSA ATCC 33593, 37 °C, 24 h
Method: as §1

[4] = In vitro release / dissolution study; assay type: physicochemical; details: all studied release media (pH 1.2, 6.8, 7.4), 37 °C
Method: In vitro release profiles for pure RIF and RIF-CD inclusion complexes were evaluated […]. Simulated gastric fluid (pH 1.2), simulated intestinal fluid (pH 6.8), and PBS (pH 7.4) were prepared as the release media in this study and used to mimic biological conditions in the human body. All samples were added into Eppendorf tubes containing 2 mL of the release media and were then placed in an incubator at 37 °C with shaking at 40 rpm. Sampling was carried out at 1, 2, 3, 4, 5, 6, 7, 8, and 24 h by taking 200 µL of each sample, transferring them to HPLC vials containing glass inserts, and replacing the sample with 200 µL of fresh release media. The samples were analyzed using a validated HPLC method.
The HPLC method for RIF quantification was adapted from our previous work. HPLC Agilent 1220 Series (Agilent Technologies, UK Ltd., Stockport, UK) was used to analyze all the samples. Isocratic separation was achieved using a Phenomenex® Luna C18 (ODS1) column (150 × 4.6 mm internal diameter, 5 µm packing) (Phenomenex, Cheshire, UK). The injection volume was 50 µL and the analysis was carried out at room temperature with a flow rate of 1 mL/min. […] RIF was detected by a UV at 334 nm. All chromatograms were analyzed using the Agilent ChemStation® Software B.02.01.

[5] = Saturation solubility of RIF in buffered solutions; assay type: physicochemical; details: buffered solution
Method: Solubility studies were performed to assess RIF solubility in a range of buffers (pH 4.0, pH 7.0, and pH 9.0). For this purpose, an excess amount of RIF was added to 3 mL of adjusted buffered solutions in a glass vial. Suspensions were stirred at 100 rpm in a shaker incubator (Jeio Tech ISF-7100, Medline Scientific, Chalgrove Oxon, UK) at 37 °C for 24 h. Samples were then filtered using 0.2 μm syringe filters (Minisart®, Sartorius Stedim Biotech, Goeltingen, Germany). All samples were diluted appropriately and analyzed using the validated HPLC method described in Section 2.10.
The HPLC method for RIF quantification was adapted from our previous work. HPLC Agilent 1220 Series (Agilent Technologies, UK Ltd., Stockport, UK) was used to analyze all the samples. Isocratic separation was achieved using a Phenomenex® Luna C18 (ODS1) column (150 × 4.6 mm internal diameter, 5 µm packing) (Phenomenex, Cheshire, UK). The injection volume was 50 µL and the analysis was carried out at room temperature with a flow rate of 1 mL/min. The mobile phase was a mixture of 25 mM sodium dihydrogen phosphate buffer (with 1% triethylamine and adjusted using phosphoric acid at pH 6.8) and methanol (ratio 30:70 v/v). RIF was detected by a UV at 334 nm. All chromatograms were analyzed using the Agilent ChemStation® Software B.02.01.

[6] = set-up: method as in earlier work; details: in humans; cited from earlier work

Compound	CE (complexation efficiency) ([1]; pH 4.0)	Ks (binding constant) ([1]; pH 4.0, RIF-CD 1:1 complex)	CE (complexation efficiency) ([1]; pH 7.0)	Ks (binding constant) ([1]; pH 7.0, RIF-CD 1:1 complex)	other results
OC[C@H]1O[C@@H]2O[C@H]3[C@H](O)[C@@H](O)[C@@H](O[C@H]4[C@H](O)[C@@H](O)[C@@H](O[C@H]5[C@H](O)[C@@H](O)[C@@H](O[C@H]6[C@H](O)[C@@H](O)[C@@H](O[C@H]7[C@H](O)[C@@H](O)[C@@H](O[C@H]8[C@H](O)[C@@H](O)[C@@H](O[C@H]1[C@H](O)[C@H]2O)O[C@@H]8CO)O[C@@H]7CO)O[C@@H]6CO)O[C@@H]5CO)O[C@@H]4CO)O[C@@H]3CO [βCD]	0.09	215 M⁻¹	0.29	250 M⁻¹	–
CO[C@H]1/C=C/O[C@@]2(C)Oc3c(C)c(O)c4c(O)c(c(/C=N/N5CCN(C)CC5)c(O)c4c3C2=O)NC(=O)/C(C)=C\C=C\[C@H](C)[C@H](O)[C@@H](C)[C@@H](O)[C@@H](C)[C@H](OC(C)=O)[C@@H]1C [Pure RIF (suspension), Rifampicin]	–	–	–	–	MIC ([2]; 24 h, n = 3): 1.56 µg/mL (≈ 1.9 µM); MIC ([3]; n = 3): 1.56 µg/mL (≈ 1.9 µM)
hydroxypropyl-βCD [HP-βCD]	0.20	541 M⁻¹	0.92	848 M⁻¹	CE (complexation efficiency) ([1]; pH 9.0): 1.12; Ks (binding constant) ([1]; pH 9.0, RIF-CD 1:1 complex): 649 M⁻¹
CO[C@H]1/C=C/O[C@@]2(C)Oc3c(C)c(O)c4c(O)c(c(/C=N/N5CCN(C)CC5)c(O)c4c3C2=O)NC(=O)/C(C)=C\C=C\[C@H](C)[C@H](O)[C@@H](C)[C@@H](O)[C@@H](C)[C@H](OC(C)=O)[C@@H]1C [RIF, Rifampicin]	–	–	–	–	RIF released in 2 h [4]: less than 10%; solubility at 24 h ([5]; aqueous buffer, thermodynamic from solid, buffer pH 7.0, 37 °C): 870 µg/mL (≈ 1060 µM); solubility at 24 h ([5]; buffer pH 4.0, 37 °C): 310 µg/mL (≈ 377 µM); solubility at 24 h ([5]; buffer pH 9.0, 37 °C): 1400 µg/mL (≈ 1700 µM); oral bioavailability [6]: approximately 68%
OC[C@H]1O[C@@H]2O[C@H]3[C@H](O)[C@@H](O)[C@@H](O[C@H]4[C@H](O)[C@@H](O)[C@@H](O[C@H]5[C@H](O)[C@@H](O)[C@@H](O[C@H]6[C@H](O)[C@@H](O)[C@@H](O[C@H]7[C@H](O)[C@@H](O)[C@@H](O[C@H]8[C@H](O)[C@@H](O)[C@@H](O[C@H]9[C@H](O)[C@@H](O)[C@@H](O[C@H]1[C@H](O)[C@H]2O)O[C@@H]9CO)O[C@@H]8CO)O[C@@H]7CO)O[C@@H]6CO)O[C@@H]5CO)O[C@@H]4CO)O[C@@H]3CO [γCD]	0.80	–	1.22	1284 M⁻¹	–
CO[C@H]1/C=C/O[C@@]2(C)Oc3c(C)c(O)c4c(O)c(c(/C=N/N5CCN(C)CC5)c(O)c4c3C2=O)NC(=O)/C(C)=C\C=C\[C@H](C)[C@H](O)[C@@H](C)[C@@H](O)[C@@H](C)[C@H](OC(C)=O)[C@@H]1C [Pure RIF (solution), Rifampicin]	–	–	–	–	MIC ([2]; Staphylococcus aureus, NCTC10788, 24 h, n = 3, read-out: MIC): 0.78 µg/mL (≈ 0.948 µM); MIC ([3]; Staphylococcus aureus, n = 3, read-out: MIC): 0.78 µg/mL (≈ 0.948 µM)
